Assay in all cases: NCI anticancer screen, dose series, 48 h
Assay [1] deals with 786-0 renal.
Assay [2] deals with COLO 205 colon.
Assay [3] concerns DU-145 prostate.
Assay [4] deals with HCC-2998 colon.
Assay [5] has as its system HL-60(TB) leukemia.
For assay [6], the system named is K-562 leukemia.
Assay [7] relates to LOX IMVI melanoma.
Assay [8] deals with M14 melanoma.
Assay [9] has as its system MDA-MB-435.
The subject of assay [10] is SW-620 colon.

Values joined by “and” are separate entries in the source; they are usually repeats but may differ in a detail not shown here. Equal values may be shown once.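 Protocol summary: plate cells (96-well), add compound at 5 concentrations, incubate 48 h, interpolate endpoints linearly. The concentration for 50% growth inhibition is given as GI50. TGI denotes the concentration required for complete inhibition of growth.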

As for `COc1cc(C2c3cc4c(cc3C(OC(=O)C[n+]3ccccc3)C3COC(=O)C23)OCO4)cc(OC)c1OC` (centres undefined), the GI50 in [1] is under 0.0183 µM; in [2] it was under 13.7 nM; in assay [3] it was under 0.0184 µM; in assay [4], under 0.0174 µM; in assay [5] it was under 0.0156 µM; in assay [6] it was under 17.3 nM. The GI50 in assay [7] was under 17.9 nM; in assay [8], under 0.017 µM; in [9], under 0.01 µM; in [10], under 0.0203 µM. Also, the TGI in assay [1] was over 100 µM; in assay [2], under 0.0203 µM; in [3], over 100 µM; in [4], over 20.9 µM; in assay [5], under 0.0287 µM; in assay [6], over 100 µM. Also, the TGI is over 100 µM in assay [7], over 100 µM in assay [8], under 0.01 µM in [9] and over 100 µM in assay [10].

`CC(C)COc1nc2c(c(=O)n(C)c(=O)n2C)n1C`: the GI50 in [1] was over 100 µM; in assay [2], over 100000 nM; in assay [3], over 100 µM; in assay [4], over 100 µM; in [5] it was over 100 µM; in assay [6] it was over 100000 nM. For the same molecule, the GI50 in [7] was over 100000 nM; in assay [8], over 100 µM; in assay [9] it was over 100 µM; in [10], over 100 µM. Further, the TGI in assay [1], in assay [2], in assay [3], in assay [4], in [5] and in assay [6] was over 100 µM throughout. For the same molecule, the TGI in assay [7], in assay [8], in assay [9] and in [10] was over 100 µM in each case.

Consider `Nc1nc(/C=C\c2ccccc2)nc(N2CCN(c3ccccc3)CC2)n1`, for which the GI50 in [1] was 16.2 µM; in [2], 16400 nM; in assay [3], 39.5 µM; in assay [4] it was 17.9 µM; in assay [5], 25.4 µM; in assay [6] it was 20500 nM. For the same molecule, the GI50 in [7] is 19000 nM; in [8], 30.2 µM; in [9], 28.4 µM; in [10], 36.3 µM. Also, the TGI is 34.8 µM in assay [1]; 35.8 µM in [2]; over 100 µM in assay [3]; 41.5 µM in [4]; 66.3 µM in assay [5]; 65.1 µM in [6]. The TGI was 40.6 µM in assay [7], over 100 µM in assay [8], 70.2 µM in [9] and over 100 µM in assay [10].

With `O=C1/C(=C/c2ccc(Cl)cc2)CNC/C1=C\c1ccc(Cl)cc1`, the TGI is 4.69 µM and 2.77 µM in assay [1]; 4.25 µM and 8.35 µM in [2]; 7.57 µM in assay [3]; 4 µM and 3.36 µM in assay [4]; 17.3 µM and > 100 µM in [6]; 4.02 µM in assay [7]. Further, the TGI in assay [8] was 8.7 µM; in [9] it was 13.7 µM. Also, the GI50 in assay [2] was 2610 nM; in assay [5], 2.42 µM and 9.41 µM; in assay [6] it was 551 nM and 1370 nM; in [10], 0.381 µM.

On to `COc1cccc(Nc2nc3ccccc3c3occc23)c1`, for which the GI50 was 10.7 µM in assay [1]; 9490 nM in assay [2]; 10.9 µM in assay [3]; 8.9 µM in [4]; 45 µM in assay [5]; 6270 nM in assay [6]. The GI50 in [7] is 2320 nM; in assay [8] it was 13.9 µM; in assay [9], 10.7 µM; in assay [10], 16.7 µM. Further, the TGI was 23.7 µM in assay [1]; 22 µM in [2]; 22.9 µM in assay [3]; 21.8 µM in [4]; over 100 µM in assay [5]; over 100 µM in [6]. In addition, the TGI in assay [7] is 8.39 µM; in assay [8] it was 28.6 µM; in assay [9], 22.6 µM; in [10] it was 34.3 µM.

Regarding `COC(=O)c1cc2c3ccccc3n3c2c(n1)-c1[nH]c2ccccc2c(=O)c1C3`, the GI50 is 16.8 µM in assay [1]; over 100000 nM in [2]; over 100 µM in assay [3]; over 100 µM in assay [4]; over 100 µM in assay [5]; over 100000 nM in assay [6]. Further, the GI50 is over 100000 nM in assay [7], over 100 µM in assay [8], over 100 µM in [9] and over 100 µM in assay [10]. In addition, the TGI in [1] was 60.3 µM; in assay [2] it was over 100 µM; in assay [3], over 100 µM; in assay [4], over 100 µM; in assay [5], over 100 µM; in assay [6], over 100 µM. Further, the TGI in assay [7], in assay [8], in assay [9] and in assay [10] was over 100 µM in each case.

In the case of `CC1=CC(C)(C)NN1C1=NS(=O)(=O)c2ccccc2N1C`, the TGI in [1], in assay [2], in [3], in assay [4], in [5] and in assay [6] was over 100 µM in each case. Further, the TGI in assay [7], in assay [8], in assay [9] and in assay [10] was over 100 µM in each case.

As to `O=[N+]([O-])c1cc([N+](=O)[O-])c(Nn2c3ccccc3c3ccccc32)c([N+](=O)[O-])c1`, the GI50 in assay [1] was 0.324 µM; in assay [2] it was 195 nM; in assay [3] it was 0.442 µM; in assay [4], 0.44 µM; in assay [5], 0.227 µM; in assay [6], 297 nM. Also, the GI50 is 339 nM in [7], 0.381 µM in assay [8], 0.348 µM in [9] and 0.366 µM in assay [10]. Moreover, the TGI in assay [1] is 13.1 µM and 15.9 µM; in assay [3], 20.1 µM and 18.7 µM; in assay [4], 12.5 µM and 2.63 µM; in assay [6], over 100 µM; in assay [7] it was 11.7 µM; in [9], 7.16 µM and 2.27 µM. In [10], the TGI was 23.7 µM and 3.56 µM.

For the molecule `CCc1nc2ccc(N=Nc3c(O)ccc4ccccc34)cc2[nH]1`, the TGI in assay [1] was 37.7 µM; in [2] it was 39 µM; in assay [3], 31.2 µM; in assay [4] it was 29.7 µM; in assay [5] it was 29.8 µM; in assay [6], over 66.1 µM. Further, the TGI came out at 28.8 µM in assay [7], 35.1 µM in [8], 67.5 µM in assay [9] and 54.4 µM in assay [10].

As to `C/C=C1/CC(C)C(C)(O)C(=O)OCC2C(O)CN3CCC(OC1=O)C23` (centres undefined), the TGI in assay [1], in assay [2], in assay [3], in assay [4], in assay [5] and in assay [6] was over 100 µM each time. Moreover, the TGI in assay [7], in assay [8], in [9] and in assay [10] was over 100 µM each time.

Regarding `CCOc1ccn(-c2ccc(F)cc2)c(=O)c1C(=O)Nc1ccc(Oc2ccnc(N)c2Cl)c(F)c1`, the GI50 in [1] was 19 µM; in [2], 2540 nM; in [3] it was 21.1 µM; in assay [4] it was 38.5 µM; in [5], 15.3 µM; in [6] it was 4420 nM. The GI50 in assay [7] is 5330 nM; in assay [8] it was 3.74 µM; in [9], 6.27 µM; in assay [10], 5.01 µM. Moreover, the TGI in [1] is over 100 µM; in [2] it was 5.57 µM; in assay [3], over 100 µM; in assay [4], over 100 µM; in assay [5] it was 38.6 µM; in [6], over 100 µM. The TGI was found to be 19.3 µM in assay [7], 16 µM in assay [8], 42.6 µM in assay [9] and 38.4 µM in [10].

As to `O=C1O/C(=C/c2ccccc2)C(c2ccccc2)=C1O`, the TGI in assay [1] is over 100 µM; in [2], over 100 µM; in assay [3] it was 97 µM; in assay [4] it was over 100 µM; in assay [5] it was 48.3 µM; in assay [6] it was over 100 µM. For the same molecule, the TGI was over 100 µM in [7], over 100 µM in [8], 89.1 µM in assay [9] and over 100 µM in [10].

`CCN(CC)CCCC(C)N/C(=C1\C(=O)NC(=O)\C1=C(/NC(C)CCCN(CC)CC)c1cccc(OC)c1)c1cccc(OC)c1` (centres undefined): the GI50 in [1] was 0.833 µM; in assay [2] it was 728 nM; in [3], 1.02 µM; in assay [4], 0.845 µM; in assay [5], 0.968 µM; in [6], 581 nM. The GI50 in [7] was 676 nM; in [8] it was 0.932 µM; in [9], 0.803 µM; in assay [10], 0.512 µM. The TGI in [1] worked out at 2.64 µM; in assay [2], 1.65 µM; in assay [3], 4.5 µM; in [4] it was 1.61 µM; in [5], 2.49 µM; in assay [6], 3.86 µM. Moreover, the TGI in assay [7] came out at 1.49 µM; in [8], 1.75 µM; in assay [9], 1.52 µM; in assay [10] it was 3.65 µM.

The record behind these values is PubChem BioAssay (NCI).
